{
  "source": "patent US8350042B2",
  "about": "“Antiviral compounds for the treatment of HCV infection” (The Regents of the University of California, priority 2008, dated 2013)",
  "tested_on": "BM4-5 FEO replicon (genotype 1b HCV)",
  "experiment": "HCV replicon assay",
  "conditions": "cells stably expressing BM4-5 FEO replicon, 48 hours incubation",
  "method": "HCV replicon assays were used to measure compound activity in cells. The impact of compounds on HCV replicon replication was assessed, using a method that was previously described (ref.: Wyles, D. L., Kaihara, K. A., Vaida, F. & Schooley, R. T. Synergy of small molecular inhibitors of hepatitis C virus replication directed at multiple viral targets. J Virol 81, 3005-8 (2007).) in cells stably expressing the BM4-5 FEO replicon in 96-well plates (10,000 cells/well). […] For testing the effect of compounds on the HCV replicon cells were incubated with compound for 48 hours and the results expressed as the mean (±SEM) of the relative light units for each condition. A sigmoidal dose response curve was then fitted to the data using Prism4.0 (GraphPad Software).",
  "data": [
    {"smiles": "CC(=O)c1ccc(C(=O)N[C@@H](CCCCN)C(=O)N2C[C@H](N)C[C@H](N)C2)cc1", "note": "[Formula III]", "values": [
      {"measurement": "Inhibition of HCV in a subgenomic replicon", "result": "inhibition of HCV"}
    ]}
  ]
}
